Reference: paper PMC5216742, “Discovery and characterization of a novel potent type II native and mutant BCR-ABL inhibitor (CHMFL-074) for Chronic Myeloid Leukemia (CML)” (Oncotarget, 2016)

Key:
[1] = target: T1, ABL1(H396P)-phosphorylated (Homo sapiens, UniProt P00519, H396P); experiment: KinomeScan profiling; assay type: binding; settings: 1 µM CHMFL-074; read-out: % Control
T1 construct: purchased DiscoveRx (KinomeScan service)

[2] = target: T2, ABL1(M351T)-phosphorylated (Homo sapiens, UniProt P00519, M351T); experiment: KinomeScan profiling; assay type: binding; settings: 1 µM CHMFL-074; read-out: % Control
T2 construct: purchased DiscoveRx (KinomeScan service)

ABL1-nonphosphorylated = target: T3, ABL1-nonphosphorylated (Homo sapiens, UniProt P00519); experiment: KinomeScan profiling; assay type: binding; settings: 1 µM CHMFL-074; read-out: % Control
T3 construct: purchased DiscoveRx (KinomeScan service)

ABL1-phosphorylated = target: T4, ABL1-phosphorylated (Homo sapiens, UniProt P00519); experiment: KinomeScan profiling; assay type: binding; settings: 1 µM CHMFL-074; read-out: % Control
T4 construct: purchased DiscoveRx (KinomeScan service)

KIT(L576P) = target: T5, KIT(L576P) (Homo sapiens, UniProt P10721, L576P); experiment: KinomeScan profiling; assay type: binding; settings: 1 µM CHMFL-074; read-out: % Control
T5 construct: purchased DiscoveRx (KinomeScan service)
T5 sequence (P10721 26-976 L576P): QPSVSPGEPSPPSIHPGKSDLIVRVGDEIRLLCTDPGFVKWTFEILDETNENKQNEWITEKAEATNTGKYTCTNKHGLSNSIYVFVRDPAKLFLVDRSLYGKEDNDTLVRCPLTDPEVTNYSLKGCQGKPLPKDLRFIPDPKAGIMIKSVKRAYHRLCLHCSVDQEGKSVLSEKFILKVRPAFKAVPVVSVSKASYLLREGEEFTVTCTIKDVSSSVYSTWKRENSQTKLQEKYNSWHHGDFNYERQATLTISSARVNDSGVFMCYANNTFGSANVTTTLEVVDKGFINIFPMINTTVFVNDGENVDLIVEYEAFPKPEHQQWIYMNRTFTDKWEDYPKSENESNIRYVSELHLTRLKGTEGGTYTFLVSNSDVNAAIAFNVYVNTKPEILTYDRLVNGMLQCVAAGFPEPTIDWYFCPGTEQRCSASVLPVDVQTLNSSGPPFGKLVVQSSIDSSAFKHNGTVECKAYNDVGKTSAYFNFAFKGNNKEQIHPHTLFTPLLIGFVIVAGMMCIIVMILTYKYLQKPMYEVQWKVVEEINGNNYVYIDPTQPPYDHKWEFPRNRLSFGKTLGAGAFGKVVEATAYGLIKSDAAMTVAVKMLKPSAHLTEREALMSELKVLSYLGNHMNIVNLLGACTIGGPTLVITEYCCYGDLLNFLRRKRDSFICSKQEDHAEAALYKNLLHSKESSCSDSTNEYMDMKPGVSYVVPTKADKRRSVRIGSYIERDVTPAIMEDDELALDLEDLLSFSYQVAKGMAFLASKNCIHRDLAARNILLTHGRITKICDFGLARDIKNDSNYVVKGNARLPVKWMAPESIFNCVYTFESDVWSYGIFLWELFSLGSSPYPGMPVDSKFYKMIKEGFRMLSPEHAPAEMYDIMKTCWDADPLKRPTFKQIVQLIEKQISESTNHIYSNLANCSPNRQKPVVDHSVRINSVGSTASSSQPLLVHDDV

KIT(V559D) = target: T6, KIT(V559D) (Homo sapiens, UniProt P10721, V559D); experiment: KinomeScan profiling; assay type: binding; settings: 1 µM CHMFL-074; read-out: % Control
T6 construct: purchased DiscoveRx (KinomeScan service)
T6 sequence (P10721 26-976 V559D): as the sequence (P10721 26-976 L576P) above, with V534D, P551L counted along it

P210-E255K-BaF3 = experiment: Anti-proliferation, BaF3 isogenic cell lines; assay type: cell-based; settings: Mus musculus, BaF3, 72 h
Excerpt: (§1) Retroviral constructs for fusion kinases were made based on the pMSCVpuro (Clontech) backbone. For TEL fusion vectors, the first 1 kb of human TEL gene with an artificial myristoylation sequence ([…]) was cloned into pMSCVpuro retroviral vector, followed by a 3xFLAG tag sequence and a stop codon; for BCR fusion vectors, the first 2.8 kb coding region of p210 amplified from K562 cell line was used in fusion constructs. Then the kinase domain coding sequences were inserted in-frame between TEL/BCR and 3xFLAG sequences. All mutagenesis were performed using the QuikChange Site-Directed Mutagenesis Kit (Stratagene) following the manufacturer's instructions. Retrovirus was packaged in HEK293T cells by transfecting kinase-fusion MSCV vectors together with two helper plasmids, virus supernatants were harvested 48 hours after transfection and filtered before infection. Then BaF3 cells were infected with harvested virus supernatants using spinoculation protocol and stable cell lines were obtained by puromycin selection for 48 hours. A second selection in the absence of IL-3 was performed to obtain IL-3 independent cell lines that solely depend on the introduced kinase activities for cell proliferation.
(§2) A density of 1 × 10^4 to 2.5 × 10^4 cells/mL cells were mixed with various concentrations of compounds then 100 μL suspension was added to each well and incubated for 72 hours. Cell viability was determined using the CellTiter-Glo assay (Promega, USA) or CCK-8 assay (Beboy, China). Both assays were performed according to the manufacturer instructions. For CellTiter-Glo assay, luminescence was determined in a multi-label reader (Envision, PerkinElmer, USA). […] Data were normalized to control group (DMSO). GI50 were calculated using Prism 6.0 (GraphPad Software, San Diego, CA).

P210-F317I-BaF3 = experiment: Anti-proliferation, BaF3 isogenic cell lines; assay type: cell-based; settings: Mus musculus, BaF3, 72 h
Excerpt: as §1, §2

P210-M351T-BaF3 = experiment: Anti-proliferation, BaF3 isogenic cell lines; assay type: cell-based; settings: Mus musculus, BaF3, 72 h
Excerpt: as §1, §2

HL-60 = experiment: Anti-proliferation, intact cancer cell lines; assay type: cell-based; settings: Homo sapiens, HL-60, 72 h
Experimental: (§3) The K562 (CML), KU812 (CML), MEG-01 (CML), MV4-11 (AML), MOLM14 (AML), U937 (AML), REC-1 (Human B-cell lymphoma cell), HL-60 (Human promyelocytic leukemia cells), MEC-1(CLL), CHL (Hamster lung cell), CHO (Hamster ovary cell) cell lines were obtained from American Type Culture Collection (Manassas, VA). All the cells were grown in a humidified incubator (Thermo, USA) at 37°C under 5% CO2. CHO cells were maintained in DMEM supplemented with 10% FBS, 1% penicillin/strepto-mycin. MV4-11 (AML) were grown in IMDM supplemented with 10% FBS, 1% penicillin/streptomycin. […] For suspension cells, cells were collected by spinning down at 800 rpm/min for 5 min before use.
as §2

K562 [3] = experiment: Anti-proliferation, intact cancer cell lines; assay type: cell-based; settings: Homo sapiens; K562 (CML), 72 hours
Experimental: as §3, §2

KU812 [4] = experiment: Anti-proliferation, intact cancer cell lines; assay type: cell-based; settings: Homo sapiens; KU812 (CML), 72 hours
Experimental: as §3, §2

MEC-1 = experiment: Anti-proliferation, intact cancer cell lines; assay type: cell-based; settings: Homo sapiens, MEC1, 72 h
Experimental: as §3, §2

MEG-01 [5] = experiment: Anti-proliferation, intact cancer cell lines; assay type: cell-based; settings: Homo sapiens, MEG-01, 72 h
Experimental: as §3, §2

REC-1 = experiment: Anti-proliferation, intact cancer cell lines; assay type: cell-based; settings: Homo sapiens, Rec1, 72 h
Experimental: as §3, §2

U937 = experiment: Anti-proliferation, intact cancer cell lines; assay type: cell-based; settings: Homo sapiens, U-937, 72 h
Experimental: as §3, §2

K562 [6] = experiment: Colony formation assay; assay type: cell-based; settings: Homo sapiens
Experimental: (§4) In brief, 1 mL of 3% agarose combined with 1 mL KU812, MEG01, or K562 growth media was used as the bottom agar in a 6-well plate. 800 cells in 1.7 mL growth media was combined with 0.3 ml of 3% agarose solution and plated on top of the bottom layer. Cells were maintained in a humidified 5% CO2 incubator at 37°C for 15 days, and continuously treated with serially diluted CHMFL-074 in a soft agar medium. On the 15th day, the number of colonies in each well were counted and each measurement was performed in triplicate.

KU812 [7] = experiment: Colony formation assay; assay type: cell-based; settings: Homo sapiens
Experimental: as §4

MEG-01 [8] = experiment: Colony formation assay; assay type: cell-based; settings: Homo sapiens
Experimental: as §4

[9] = tested on: normal human B-cells purified from the peripheral blood; experiment: Proliferation assay on normal cells from peripheral blood; assay type: cell-based; settings: at 1 μM
Experimental: Mononuclear cells were isolated from CML patients or healthy donors by density-gradient centrifugation through Ficoll (Beijing Solarbio Science & Technology Co., Ltd., Beijing, China) at 400 g for 30 min, followed by two washes in 1× phosphate-buffered saline. Cells were then cultured in liquid culture (RPMI1640, supplemented with 20% FBS). All blood samples from CML patients and healthy donors were obtained through written consent under approval of the Chinese Academy of Sciences Institutional Review Board. The ethics committees approved the consent Procedure. CML primary patient cells were tested in liquid culture (RPMI1640, supplemented with 20% FBS) in the presence of different concentrations of CHMFL-074. The trypan blue exclusion assay was used for quantification of cells for seeding for before Cell-Titer Glo assays (Promega, USA). The Cell-Titer Glo assay was used for proliferation studies and carried out according to manufacturer's instructions. Cell viability is reported as percentages of control (untreated) cells.

Question: Which remaining binding at 1 µM [1] does the source give for `Cc1ccc(NC(=O)c2ccc(CN3CCN(C)CC3)c(C(F)(F)F)c2)cc1OC1CCN(C(=O)c2cccnc2)CC1` [CHMFL-074] here?
Answer: 0.3%

Question: And the remaining binding at 1 µM [2]?
Answer: 1%

Question: What about the remaining binding at 1 µM (ABL1-nonphosphorylated) of the same compound?
Answer: 0.25%

Question: And the remaining binding at 1 µM (ABL1-phosphorylated)?
Answer: 0.2%

Question: And the remaining binding at 1 µM (KIT(L576P))?
Answer: 1%

Question: What about the remaining binding at 1 µM (KIT(V559D)) of the same compound?
Answer: 0.45%

Question: And the GI50 (P210-E255K-BaF3)?
Answer: 0.774 µM

Question: And the GI50 (P210-F317I-BaF3)?
Answer: 0.355 µM

Question: What about the GI50 (P210-M351T-BaF3) of the same compound?
Answer: 0.349 µM

Question: And the GI50 (HL-60)?
Answer: > 10 µM

Question: And the GI50 (K562 [3])?
Answer: 0.056 µM

Question: And the GI50 (KU812 [4])?
Answer: 0.057 µM

Question: And the GI50 (MEC-1)?
Answer: > 10 µM

Question: And the GI50 (MEG-01 [5])?
Answer: 0.018 µM

Question: And the GI50 (REC-1)?
Answer: > 10 µM

Question: And the GI50 (U937)?
Answer: > 10 µM

Question: And the EC50 (K562 [6]; 360 h, K562, soft agar, 15 days)?
Answer: 0.004 µM

Question: What about the IC50 (K562 [6]; K562, read-out: anti-colony formation IC50) of the same compound?
Answer: 0.004 µM

Question: What about the EC50 (KU812 [7]; 360 h, KU812, soft agar, 15 days) of the same compound?
Answer: 0.008 µM

Question: What about the IC50 (KU812 [7]; KU812, read-out: anti-colony formation IC50) of the same compound?
Answer: 0.008 µM

Question: What about the EC50 (MEG-01 [8]; 360 h, MEG-01, soft agar, 15 days) of the same compound?
Answer: 0.012 µM

Question: What about the IC50 (MEG-01 [8]; MEG-01, read-out: anti-colony formation IC50) of the same compound?
Answer: 0.012 µM

Question: And the “inhibitory activity against normal human B-cells” value [9]?
Answer: did not show any inhibitory activities
